Experimental data reported in patent US8008093B2, “Inhibition of Hsp27 phosphorylation for the treatment of blistering disorders” (The University of North Carolina at Chapel Hill, priority 2004, dated 2011).
“Also recorded” adds a separate entry of the source.

Assays:
HSP27 = test: PV IgG induced HSP27 phosphorylation in keratinocytes, immunoblot; conditions: preincubated 60 mins at 37° C. with inhibitor, then 25 μM PV IgG 30 mins
Protocol: Cells were preincubated for 60 minutes at 37° C. with the p38MAPK inhibitors SB202190 or SB203580, the protein kinase C inhibitors Calphostin C or H-7, or the phospholipase C inhibitor U-73122. PV IgG (25 μM) was then added and the cells were incubated for 30 mins at 37° C., and harvested in IEF lysis buffer. Extracts were separated on 10% SDS-PAGE gels followed by immunoblotting with anti-HSP27 and anti-phosphoHSP27 antibodies.
For inhibition studies, keratinocytes were preincubated for 60 mins at 37° C. with the p38MAPK inhibitors SB202190 (100 μM) or H-7 (10 μM), or the phospholipase C inhibitor U-73122 (4 μM), after which PV IgG was added to a final concentration of 25 μM, the cells incubated for 30 mins at 37° C., and harvested in IEF lysis buffer.

keratinocytes = test: Keratin and actin reorganization in keratinocytes, confocal microscopy; assay type: cell-based, human; conditions: 25 μM PV IgG 6 hrs at 37° C.; SB202190 100 μM preincubated 60 mins
Protocol: FIGS. 5A-5C are data showing that PV IgG induced cytoskeletal reorganization can be prevented by inhibiting p38MAPK. […] Cells were stained with the indicated antibodies or fluorescein-phalloidin and analyzed by confocal microscopy.
At 37° C. Cells were fixed and stained with flourescein conjugated phalloidin (Molecular Probes, Eugene, Oreg., United States of America), pancytokeratin antibodies (clone AE1/AE3, Zymed, San Francisco, Calif., United States of America), or goat anti-human E-cadherin antibodies (R & D Systems, mc, Minneapolis, Minn., United States of America) as previously described (Hu et al., (2001) Experimental Nephrology 9, 156-164), followed by Cy2 and Cy3 conjugated secondary antibodies (Jackson Laboratories, West Grove, Pa., United States of America). Images were analyzed using a Leica SP2 AOBS confocal microscope (Leica, Bannockburn, Ill., United States of America) with an excitation wavelength of 488 nm and capture at 500-550 nm or an excitation wavelength of 561 nm and capture at 590-650 nm using a 63×objective with NA 1.4. Double labeled samples were checked for bleed though by turning off the longer wavelength laser and assaying for the absence of image. For 3 dimensional image reconstructions, serial sections were scanned at 0.244 μm and rendered using the program Volocity Version 3 (Improvision, Lexington, Mass., United States of America).

neonatal C57BL/6J mice = test: Passive transfer PV mouse model, blister formation; assay type: in vivo
Excerpt: The passive transfer PV mouse model developed by Anhalt and Diaz (Anhalt, et al. (1992) New England Journal of Medicine 306, 1189-1196) was used to test the hypothesis that p38MAPK inhibitors can block blister formation in vivo. In this model, the IgG fraction from patients and control non-affected normal individuals was purified and passively transferred into neonatal mice (Anhalt, et al. (1992) New England Journal of Medicine 306, 1189-1196; Rock, et al. (1990) J of Clinical Investigation 85, 296-299).
For in vivo inhibitor studies, the mice were injected intradermally with PV and normal IgG (1.0 or 1.5 mg/gram body weight) as disclosed in Mascaro et al. (Clin Immunology & Immunopathology 85, 90-96 (1997)). The P38 MAPK inhibitors were administered intradermally in two doses. In the first dose, 6.25 μg SB202190 was administered two hours prior to intradermal injection of IgG. In the second dose, 6.25 μg SB202190 was mixed with PV or control IgG and injected intradermally. Each animal received a total inhibitor dose of 12.5 μg.

p38MAPK = p38MAPK phosphorylation in mouse skin extracts, immunoblot; assay type: in vivo; conditions: PV IgG 1.0 mg IgG/g intradermally; SB202190 6.25 μg twice; skin biopsies after 18 hours
Excerpt: FIG. 7A is an immunoblot showing LDH control, PV IgG, and PV IgG+SB202190 first equally loaded on and separated by SDS-PAGE, transferred to PVDF, and immunoblotted with antibodies to p38MAPK, phospho-p38MAPK or lactate dehydrogenase (LDH) as a loading control. Blots were developed by ECL reaction (Amersham, Piscataway, N.J., United States of America).
FIG. 7B is a bar graph illustrating signal intensity from the ECL reaction for each band from the immunoblot of FIG. 7A, quantified with a GeneGnome™ scanner (Syngene Bio Imaging, Frederick, Md., United States of America) using GeneSnap™ software (n=3, S.D. shown by error bars).

HSP25 = HSP25 phosphorylation in mouse skin extracts, 2D immunoblot; assay type: in vivo; conditions: PV IgG 1.0 mg IgG/g intradermally; SB202190 6.25 μg twice; skin biopsies after 18 hours
Protocol: Skin biopsies were obtained after 18 hours of treatment and extracted in IEF lysis buffer.
FIG. 7C is an autoradiogram of an immunoblot showing cell extracts (30 μg) prepared and separated in the first dimension using 7 cm pH 4-7, non-linear IPGphor strips (Amersham Biosciences, Inc.) and in the second dimension by 10% SDS-PAGE followed by immunoblotting with antibodies to murine HSP25 using methods known in the art (see Berkowitz et al. (2005) J Biol Chem 280, 23778-23784). […] P values were calculated using student's T-test.

[1] = tested on: epidermal keratinocyte cell membranes; test: Direct immunofluorescence of perilesional skin for bound PV IgG; conditions: direct immunofluorescence of mouse skin, PV IgG+SB202190 vs PV IgG
Excerpt: Perilesional skin biopsies were examined by direct immunofluorescence for the presence of PV IgG bound to the epidermal epithelium.

[2] = PV IgG intradermally, SB202190 two doses of 6.25 μg intradermally, after 18 hours
[3] = histology, PV IgG intradermally, SB202190 two doses of 6.25 μg intradermally, after 18 hours

Calphostin C
inhibition of PV IgG induced HSP27 phosphorylation (HSP27): No notable inhibition

CC1CNCCN1S(=O)(=O)c1cccc2cnccc12 (stereo not drawn) [H-7]
inhibition of PV IgG induced HSP27 phosphorylation (HSP27): No notable inhibition

COc1ccc2c(c1)CC[C@@H]1[C@@H]2CC[C@]2(C)[C@@H](NCCCCCCN3C(=O)C=CC3=O)CC[C@@H]12 [U-73122]
inhibition of PV IgG induced HSP27 phosphorylation (HSP27): No notable inhibition

Oc1ccc(-c2nc(-c3ccc(F)cc3)c(-c3ccncc3)[nH]2)cc1 [SB202190, 4-(4-Fluorophenyl)-2-(4-hydroxyphenyl)-5-(4-pyridyl)1H-imidazole]
actin reorganization (phalloidin staining) (keratinocytes): similarly prevented; also recorded: inhibited | keratin filament retraction (keratinocytes): prevented | suprabasal acantholysis leading to blister formation (neonatal C57BL/6J mice; PV IgG 1 mg IgG/g body weight, skin biopsies, hematoxylin and eosin): blocked | Nikolsky's sign (neonatal C57BL/6J mice; PV IgG 1.5 mg IgG/gram body weight intradermally, examined 18 hours later): negative Nikolsky's sign | blister development, clinically and histologically (neonatal C57BL/6J mice; PV IgG 1.0 or 1.5 mg/gram body weight intradermally, SB202190 total 12.5 μg, after 18 hours): failed to develop blisters | Numbers of Mice with Nikolsky Sign: Nikolsky Negative (neonatal C57BL/6J mice; [2]): 11 | Numbers of Mice with Nikolsky Sign: Nikolsky Positive (neonatal C57BL/6J mice; [2]): 1 | Numbers of Mice with Suprabasilar Acantholysis: Blisters Present (neonatal C57BL/6J mice; [3]): 1 | Numbers of Mice with Suprabasilar Acantholysis: No Blisters (neonatal C57BL/6J mice; [3]): 11 | p38MAPK phosphorylation in skin extracts (p38MAPK): prevented; also recorded: blocked | phosphorylation of the most negatively charged HSP25 isoform in skin extracts (HSP25): inhibited; also recorded: blocked | effect on binding of PV autoantibodies to epidermal keratinocyte cell surface [1]: did not prevent or alter the binding; also recorded: does not prevent binding
